From PubChem BioAssay AID2060493 (Molecular Pharmacology Branch, DTP, NCI, 2025)
Each block holds one molecule with its values, some of them ahead of it.

System: 616215-338-R-J1-PDC tumor spheroids, viability
Experiment: Anticancer human tumor 616215-338-R-J1-PDC patient-derived colon adenocarcinoma cell line growth inhibition [GQUAD]
Conditions: spheroids with HUVEC and MSC; for IC50: curve of first compound; for viability, T/C: stronger effect = lower value
In short: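 Tumor cells were grown as complex spheroids with HUVEC endothelial cells and mesenchymal stem cells as stroma. G-quadruplex stabilizers were combined with targeted agents over half-log dilutions from near the clinical Cmax, or from 10 microM.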

[1] = second compound 0.0316 µM, first compound 0.0316 µM
[2] = second compound 0.0316 µM, first compound 0.1 µM
[3] = second compound 0.0316 µM, first compound 0.316 µM
[4] = second compound 0.0316 µM, first compound 1 µM
[5] = second compound 0.0316 µM, first compound 3.16 µM
[6] = second compound 0.0316 µM, first compound 10 µM
[7] = second compound 0.1 µM, first compound 0.0316 µM
[8] = second compound 0.1 µM, first compound 0.1 µM
[9] = second compound 0.1 µM, first compound 0.316 µM
[10] = second compound 0.1 µM, first compound 1 µM
[11] = second compound 0.1 µM, first compound 3.16 µM
[12] = second compound 0.1 µM, first compound 10 µM
[13] = second compound 0.316 µM, first compound 0.0316 µM
[14] = second compound 0.316 µM, first compound 0.1 µM
[15] = second compound 0.316 µM, first compound 0.316 µM
[16] = second compound 0.316 µM, first compound 1 µM
[17] = second compound 0.316 µM, first compound 3.16 µM
[18] = second compound 0.316 µM, first compound 10 µM
[19] = second compound 1 µM, first compound 0.0316 µM
[20] = second compound 1 µM, first compound 0.1 µM
[21] = second compound 1 µM, first compound 0.316 µM
[22] = second compound 1 µM, first compound 1 µM
[23] = second compound 1 µM, first compound 3.16 µM
[24] = second compound 1 µM, first compound 10 µM
[25] = second compound 3.16 µM, first compound 0.0316 µM
[26] = second compound 3.16 µM, first compound 0.1 µM
[27] = second compound 3.16 µM, first compound 0.316 µM
[28] = second compound 3.16 µM, first compound 1 µM
[29] = second compound 3.16 µM, first compound 3.16 µM
[30] = second compound 3.16 µM, first compound 10 µM
[31] = second compound 10 µM, first compound 0.0316 µM
[32] = second compound 10 µM, first compound 0.1 µM
[33] = second compound 10 µM, first compound 0.316 µM
[34] = second compound 10 µM, first compound 1 µM
[35] = second compound 10 µM, first compound 3.16 µM
[36] = second compound 10 µM, first compound 10 µM
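Note: spheroids exposed to agents for 7 days before readout.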
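Throughout, for viability, T/C: percent viability relative to DMSO vehicle control wells taken as 100%.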

Structure (SMILES): COc1ccc([C@@H](O)c2cc(-c3ncnc4cc(N5CCOCC5)ccc34)c(F)cc2Cl)nn1 + Cc1[nH]c2ccc(F)cc2c1-c1nc2c3cccnc3c3ncccc3c2[nH]1
IC50 (second compound 0.0316 µM): > 10000 nM
IC50 (second compound 0.1 µM): > 10000 nM
IC50 (second compound 0.316 µM): > 10000 nM
IC50 (second compound 1 µM): > 10000 nM
IC50 (second compound 3.16 µM): > 10000 nM
IC50 (second compound 10 µM): 8730 nM
viability, T/C [1]: 106%
viability, T/C [2]: 108%
viability, T/C [3]: 101%
viability, T/C [4]: 105%
viability, T/C [5]: 106%
viability, T/C [6]: 53.6%
viability, T/C [7]: 108%
viability, T/C [8]: 104%
viability, T/C [9]: 110%
viability, T/C [10]: 104%
viability, T/C [11]: 104%
viability, T/C [12]: 58.4%
viability, T/C [13]: 104%
viability, T/C [14]: 111%
viability, T/C [15]: 111%
viability, T/C [16]: 111%
viability, T/C [17]: 111%
viability, T/C [18]: 61%
viability, T/C [19]: 101%
viability, T/C [20]: 99.2%
viability, T/C [21]: 104%
viability, T/C [22]: 96.8%
viability, T/C [23]: 90.2%
viability, T/C [24]: 72.5%
viability, T/C [25]: 96.7%
viability, T/C [26]: 99.2%
viability, T/C [27]: 90%
viability, T/C [28]: 97.8%
viability, T/C [29]: 97.4%
viability, T/C [30]: 51.2%
viability, T/C [31]: 90.3%
viability, T/C [32]: 101%
viability, T/C [33]: 97.4%
viability, T/C [34]: 117%
viability, T/C [35]: 100%
viability, T/C [36]: 43.2%

Structure (SMILES): CC1COCCN1c1cc(-c2ccnn2C)c2ccnc(-c3ccn[nH]3)c2n1 (stereo unspecified) + Cc1[nH]c2ccc(F)cc2c1-c1nc2c3cccnc3c3ncccc3c2[nH]1
IC50 (second compound 0.0316 µM): 224 nM
IC50 (second compound 0.1 µM): 139 nM
IC50 (second compound 0.316 µM): 185 nM
IC50 (second compound 1 µM): 170 nM
IC50 (second compound 3.16 µM): 140 nM
IC50 (second compound 10 µM): 140 nM
viability, T/C [1]: 96.6%
viability, T/C [2]: 70.7%
viability, T/C [3]: 41.7%
viability, T/C [4]: 25.1%
viability, T/C [5]: 30.2%
viability, T/C [6]: 20.1%
viability, T/C [7]: 97.8%
viability, T/C [8]: 56.3%
viability, T/C [9]: 34.1%
viability, T/C [10]: 25.2%
viability, T/C [11]: 24.9%
viability, T/C [12]: 19.9%
viability, T/C [13]: 91.5%
viability, T/C [14]: 62.1%
viability, T/C [15]: 40%
viability, T/C [16]: 27.7%
viability, T/C [17]: 22.6%
viability, T/C [18]: 23.9%
viability, T/C [19]: 91.5%
viability, T/C [20]: 63%
viability, T/C [21]: 33.6%
viability, T/C [22]: 32.2%
viability, T/C [23]: 22.9%
viability, T/C [24]: 24.7%
viability, T/C [25]: 91.9%
viability, T/C [26]: 57.9%
viability, T/C [27]: 30.2%
viability, T/C [28]: 26.1%
viability, T/C [29]: 21.2%
viability, T/C [30]: 17.9%
viability, T/C [31]: 90.1%
viability, T/C [32]: 50%
viability, T/C [33]: 40.3%
viability, T/C [34]: 31.5%
viability, T/C [35]: 22.6%
viability, T/C [36]: 16.4%

IC50 (second compound 0.0316 µM): 4510 nM
IC50 (second compound 0.1 µM): 422 nM
IC50 (second compound 0.316 µM): < 31.6 nM
IC50 (second compound 1 µM): < 31.6 nM
IC50 (second compound 3.16 µM): 43.6 nM
IC50 (second compound 10 µM): < 31.6 nM
Structure (SMILES): C#Cc1c(F)ccc2cc(O)cc(-c3ncc4c(N5CC6CCC(C5)N6)nc(OCC56CCCN5CC(F)C6)nc4c3F)c12 (stereo unspecified) + Cc1cnc(CNC(=O)c2c(=O)c3ccc(N4CCCN(C)CC4)nc3n3c2sc2ccccc23)cn1
viability, T/C [1]: 98.8%
viability, T/C [2]: 88.4%
viability, T/C [3]: 103%
viability, T/C [4]: 67.6%
viability, T/C [5]: 63.8%
viability, T/C [6]: 27.8%
viability, T/C [7]: 64.3%
viability, T/C [8]: 64.2%
viability, T/C [9]: 51.9%
viability, T/C [10]: 40.2%
viability, T/C [11]: 28.7%
viability, T/C [12]: 22.1%
viability, T/C [13]: 38.8%
viability, T/C [14]: 40.5%
viability, T/C [15]: 48.3%
viability, T/C [16]: 40.8%
viability, T/C [17]: 39.2%
viability, T/C [18]: 19%
viability, T/C [19]: 34.7%
viability, T/C [20]: 27.1%
viability, T/C [21]: 40.9%
viability, T/C [22]: 19.8%
viability, T/C [23]: 20.8%
viability, T/C [24]: 20.4%
viability, T/C [25]: 58.3%
viability, T/C [26]: 27.7%
viability, T/C [27]: 24.1%
viability, T/C [28]: 15.6%
viability, T/C [29]: 18.8%
viability, T/C [30]: 7.2%
viability, T/C [31]: 21%
viability, T/C [32]: 18.5%
viability, T/C [33]: 22.3%
viability, T/C [34]: 16.8%
viability, T/C [35]: 14.8%
viability, T/C [36]: 14.6%
